The text below walks through data of ChEMBL document CHEMBL1201862, “PubChem BioAssay data set” (2004).

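How tested: cells in 96-well plates exposed to compound for 48 hours at five concentrations. GI50 = concentration required for 50% inhibition of growth.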 Calls of active or inactive are those of the source. Rule as the data show it: active = GI50 up to about 1.1 µM and inactive = higher. Square brackets hold non-standard residues; d marks the D form. Peptide text beside a SMILES is read from it. * marks the point of attachment. X26 = COC1=CC(=O)N(C(=O)[C@@H](O*)C(C)C)[C@H]1Cc1ccccc1; Bn2Val = CC(C)[C@@H](C(=O)*)N(Cc1ccccc1)Cc1ccccc1; NMeV = CN[C@H](C(=O)O)C(C)C; dNMeA = CN[C@H](C)C(=O)O

Some test systems named below: SK-OV-3; DU-145; A498; EKVX; NCI-H460; T47D; NCI-H226; LOX IMVI; MCF7; Hs-578T; A549; SR; 786-0; ACHN; MDA-MB-435; SN12C; PC-3; OVCAR-8; K562; SF-539.
Holding throughout (test): NCI-60 cell line screen, 48 h

Turning to `O=[N+]([O-])c1ccc(S(=O)(=O)Cc2ccccc2)c([N+](=O)[O-])c1`, the GI50 in the assay with SK-OV-3 is 6.78 µM (inactive); in the assay with DU-145, 3.63 µM (inactive); in the assay on A498 it was 15.6 µM (inactive); in the assay with EKVX, 1.87 µM (inactive); with NCI-H460, 5.12 µM (inactive); in the assay with T47D it was 1.35 µM (inactive). Also, the GI50 in the assay on NCI-H226 is 21.9 µM (inactive); with LOX IMVI, 1.79 µM (inactive); with MCF7, 1.87 µM (inactive); with Hs-578T, 4.12 µM (inactive); with A549, 11.4 µM (inactive); in the assay with SR, 0.247 µM (active). The GI50 in the assay with 786-0 is 1.58 µM (inactive); with ACHN, 1.58 µM (inactive); with MDA-MB-435, 1.75 µM (inactive); with SN12C it was 1.91 µM (inactive); in the assay with PC-3, 1.78 µM (inactive); in the assay on OVCAR-8 it was 1.89 µM (inactive). Also, the GI50 in the assay on K562 was 1.13 µM (inactive); in the assay on SF-539, 1.99 µM (inactive).

Take `Cc1cc(C)cc(C(=N)c2ccccc2Cc2cccc3ccccc23)c1`: the GI50 in the assay with SK-OV-3 was 17.5 µM (inactive); in the assay with DU-145 it was 16.2 µM (inactive); in the assay with A498, 27.9 µM (inactive); in the assay with EKVX, 16.7 µM (inactive); in the assay on NCI-H460, 13.5 µM (inactive); with T47D, 16.3 µM (inactive). Moreover, the GI50 is 14.6 µM (inactive) with NCI-H226; 18 µM (inactive) in the assay on LOX IMVI; 16.2 µM (inactive) in the assay with MCF7; 3.47 µM (inactive) in the assay with Hs-578T; 16 µM (inactive) in the assay on A549; 14.2 µM (inactive) in the assay on SR. Further, the GI50 with 786-0 is 15.2 µM (inactive); in the assay with ACHN, 16.6 µM (inactive); in the assay on MDA-MB-435, 17.2 µM (inactive); in the assay on SN12C it was 17.7 µM (inactive); with PC-3 it was 45.8 µM (inactive); with OVCAR-8 it was 18 µM (inactive). Further, the GI50 with K562 was 16.3 µM (inactive); with SF-539 it was 16.1 µM (inactive).

For `Cc1cc(-c2nc3ccccc3s2)ccc1N`, the GI50 in the assay on SK-OV-3 is 55.5 µM (inactive); with DU-145, 46.6 µM (inactive); in the assay on A498 it was 4.34 µM (inactive); in the assay with EKVX it was 26.6 µM (inactive); in the assay on NCI-H460, 27.2 µM (inactive); in the assay on T47D, 0.0322 µM (active). The GI50 was 8.67 µM (inactive) with NCI-H226; 31.6 µM (inactive) in the assay with LOX IMVI; < 0.0133 µM (active) with MCF7; > 100 µM (inactive) in the assay on Hs-578T; 32.8 µM (inactive) with A549; 25.6 µM (inactive) in the assay on SR. Besides, the GI50 was 57.8 µM (inactive) with 786-0; 45.4 µM (inactive) with ACHN; 56.9 µM (inactive) in the assay with MDA-MB-435; 32.9 µM (inactive) in the assay with SN12C; 26 µM (inactive) with PC-3; 61.5 µM (inactive) with OVCAR-8. The GI50 with K562 was 38.8 µM (inactive); with SF-539, > 71.1 µM (inactive).

In the case of `CCCC(=O)Nc1ncnc2c1ncn2C1OC2COP(=O)(O)OC2C1OC(=O)CCC` (stereo not given), the GI50 in the assay on SK-OV-3 was > 100 µM (inactive); in the assay on DU-145, > 100 µM (inactive); in the assay with A498, 31.9 µM (inactive); in the assay on EKVX it was > 100 µM (inactive); with NCI-H460, > 100 µM (inactive); in the assay on T47D, > 100 µM (inactive). Besides, the GI50 in the assay on NCI-H226 is > 100 µM (inactive); in the assay on LOX IMVI, > 100 µM (inactive); in the assay with MCF7 it was > 100 µM (inactive); with Hs-578T, > 1000 µM (inactive); with A549, > 100 µM (inactive); in the assay on SR, 493 µM (inactive). Besides, the GI50 in the assay with 786-0, in the assay with ACHN, with MDA-MB-435, in the assay on SN12C, in the assay with PC-3 and with OVCAR-8 was > 100 µM (inactive) throughout. Besides, the GI50 in the assay with K562 was > 100 µM (inactive); in the assay with SF-539, 382 µM (inactive).

Take `COC1=CC(=O)N(C(=O)[C@@H](OC(=O)[C@@H](C)N(C)C(=O)[C@@H]2CCCN2C(=O)[C@H](C(C)C)N(C)C(=O)[C@@H](NC(=O)[C@H](C(C)C)N(Cc2ccccc2)Cc2ccccc2)C(C)C)C(C)C)[C@H]1Cc1ccccc1` (Bn2Val-V[NMeV]P[dNMeA]-X26): the GI50 was > 100 µM (inactive) in the assay on SK-OV-3; > 100 µM (inactive) in the assay on DU-145; 38.2 µM (inactive) in the assay on A498; > 44.5 µM (inactive) with EKVX; > 100 µM (inactive) with NCI-H460; > 100 µM (inactive) with T47D. The GI50 was > 26.3 µM (inactive) in the assay on NCI-H226; > 100 µM (inactive) in the assay on LOX IMVI; 8.65 µM (inactive) in the assay on MCF7; > 100 µM (inactive) in the assay with Hs-578T; > 100 µM (inactive) in the assay with A549; > 100 µM (inactive) in the assay on SR. In addition, the GI50 was 98.2 µM (inactive) in the assay on 786-0; > 100 µM (inactive) in the assay on ACHN; > 100 µM (inactive) with MDA-MB-435; > 100 µM (inactive) in the assay with SN12C; 6.3 µM (inactive) in the assay with PC-3; > 100 µM (inactive) with OVCAR-8. Moreover, the GI50 was 6.78 µM (inactive) in the assay on K562 and > 37.2 µM (inactive) with SF-539.

In the case of `NNC(=O)CC(=O)Nc1ccc(Cl)cc1`, the GI50 in the assay on SK-OV-3, in the assay with DU-145, in the assay on A498, in the assay on EKVX, in the assay on NCI-H460 and with T47D was > 100 µM (inactive) throughout. Also, the GI50 in the assay with NCI-H226 is > 100 µM (inactive); with LOX IMVI it was 34.1 µM (inactive); with MCF7 it was > 100 µM (inactive); in the assay with Hs-578T, > 100 µM (inactive); in the assay on A549 it was > 100 µM (inactive); in the assay with SR it was > 100 µM (inactive). The GI50 was > 100 µM (inactive) in the assay on 786-0; 66.7 µM (inactive) in the assay on ACHN; > 100 µM (inactive) in the assay on MDA-MB-435; > 100 µM (inactive) in the assay on SN12C; > 100 µM (inactive) in the assay on PC-3; > 100 µM (inactive) with OVCAR-8. Besides, the GI50 is 48.6 µM (inactive) with K562 and > 100 µM (inactive) in the assay with SF-539.
